According to PubChem BioAssay AID330 (DTP/NCI, 2004):
Values joined by “and” are separate entries in the source; they are usually repeats but may differ in a detail not shown here. Equal values may be shown once. Inconclusive results and toxic doses are left out. How the source made its calls: active means survival T/C of 150% or more; inactive means T/C below 125% in these data.

Test system: P388 leukemia ip, CD2F1 mice, survival T/C
Assay: NCI In Vivo Anticancer Drug Screen. Data for tumor model P388 Leukemia (intraperitoneal) in CD2F1 (CDF1) mice
Settings: endpoint: median survival time, higher = longer survival
Outline: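 Mice carrying the transplanted tumor received test compound or vehicle. Survival was recorded in each group, and the value is the treated-group measurement divided by that of the vehicle-treated control group.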

[1] = dose: 100.0 mg/kg/injection, schedule: Q04DX003 (ip), vehicle: saline
[2] = dose: 200.0 mg/kg/injection, schedule: Q04DX003 (ip), vehicle: saline
[3] = dose: 50.0 mg/kg/injection, schedule: Q01DX005 (ip), vehicle: Klucel (hydroxypropylcellulose) (HPC)
[4] = dose: 100.0 mg/kg/injection, schedule: Q01DX005 (ip), vehicle: Klucel (hydroxypropylcellulose) (HPC)
[5] = dose: 200.0 mg/kg/injection, schedule: Q01DX005 (ip), vehicle: Klucel (hydroxypropylcellulose) (HPC)
[6] = dose: 60.0 mg/kg/injection, schedule: Q01DX005 (ip), vehicle: saline
[7] = dose: 120.0 mg/kg/injection, schedule: Q01DX005 (ip), vehicle: saline
[8] = dose: 240.0 mg/kg/injection, schedule: Q01DX005 (ip), vehicle: saline
[9] = dose: 50.0 mg/kg/injection, schedule: Q04DX003 (ip), vehicle: saline
[10] = dose: 60.0 mg/kg/injection, schedule: Q01DX005 (ip), vehicle: saline with Tween-80
[11] = dose: 120.0 mg/kg/injection, schedule: Q01DX005 (ip), vehicle: saline with Tween-80
[12] = dose: 240.0 mg/kg/injection, schedule: Q01DX005 (ip), vehicle: saline with Tween-80
[13] = dose: 50.0 mg/kg/injection, schedule: Q01DX001 (ip), vehicle: Klucel (hydroxypropylcellulose) (HPC)
[14] = dose: 100.0 mg/kg/injection, schedule: Q01DX001 (ip), vehicle: Klucel (hydroxypropylcellulose) (HPC)
[15] = dose: 200.0 mg/kg/injection, schedule: Q01DX001 (ip), vehicle: Klucel (hydroxypropylcellulose) (HPC)
[16] = dose: 400.0 mg/kg/injection, schedule: Q01DX001 (ip), vehicle: Klucel (hydroxypropylcellulose) (HPC)

Measured: T/C

O=C(CN1CCOCC1)c1c(-c2ccccc2)[nH]c2ccccc12
inactive: [1] 104 % of control | [2] 102 % of control | dose: 400.0 mg/kg/injection, schedule: Q04DX003 (ip), vehicle: saline 95 % of control

OC1CN(c2ccccc2)CC1O (stereo not given)
inactive: [3] 105 % of control | [4] 96 % of control | [5] 97 % of control

CCN1C(=O)C(C)C(=O)N(C)C1=O (stereo not given)
inactive: [6] 110 % of control | [7] 100 % of control | [8] 100 % of control

Clc1ccc(-c2nnc(-c3cccc(Cl)n3)o2)c(Cl)c1
inactive: dose: 43.8 mg/kg/injection, schedule: Q01DX005 (ip), vehicle: saline with Tween-80 99 % of control | dose: 87.5 mg/kg/injection, schedule: Q01DX005 (ip), vehicle: saline with Tween-80 87 % of control

c1ccc2c(c1)Nc1ncccc1S2
inactive: dose: 50.0 mg/kg/injection, schedule: Q01DX009 (ip), vehicle: saline with Tween-80 99 % of control and 94 % of control | dose: 100.0 mg/kg/injection, schedule: Q01DX009 (ip), vehicle: saline with Tween-80 92 % of control and 95 % of control | dose: 200.0 mg/kg/injection, schedule: Q01DX009 (ip), vehicle: saline with Tween-80 107 % of control and 92 % of control | dose: 400.0 mg/kg/injection, schedule: Q01DX009 (ip), vehicle: saline with Tween-80 108 % of control

S=c1[nH]nc2nc3c4ccccc4c4ccccc4c3nn12
inactive: [9] 95 % of control | [1] 95 % of control | [2] 93 % of control

C[C@@H]1C(N2CCCC2)=CC(=O)OC1c1ccccc1 (stereo not given in full)
inactive: [10] 105 % of control | [11] 109 % of control | [12] 111 % of control

NC(N)=N/N=C1/c2ccccc2/C(=N/N=C(N)N)C1[N+](=O)[O-]
inactive: dose: 25.0 mg/kg/injection, schedule: Q01DX001 (ip), vehicle: Klucel (hydroxypropylcellulose) (HPC) 112 % of control | [13] 114 % of control | [14] 114 % of control | [15] 113 % of control | [16] 111 % of control

Cc1[nH]c(=O)nc(Nc2ccc(Cl)cc2)c1C(=O)N1CCN(CCO)CC1
inactive: [10] 93 % of control | [11] 90 % of control and 93 % of control | [12] 102 % of control and 93 % of control

CC(=O)NS(=O)(=O)c1ccc(NCc2c3ccccc3nc3cc(Cl)ccc23)cc1
inactive: [10] 114 % of control | [11] 102 % of control | [12] 105 % of control

NC(=O)CSc1nnc2ccccn12
inactive: [9] 92 % of control | [1] 100 % of control | [2] 104 % of control

CCCCCCCCCCCCC(C(=O)O)C(C)C(=O)O (stereo not given)
inactive: dose: 0.25 mg/kg/injection, schedule: Q01DX009 (ip), vehicle: saline with Tween-80 96 % of control | dose: 0.5 mg/kg/injection, schedule: Q01DX009 (ip), vehicle: saline with Tween-80 102 % of control | dose: 1.0 mg/kg/injection, schedule: Q01DX009 (ip), vehicle: saline with Tween-80 104 % of control

Cc1ccc(C2=C(Cl)C(=O)NC2=O)s1
inactive: dose: 3.13 mg/kg/injection, schedule: Q01DX001 (ip), vehicle: saline 100 % of control | dose: 6.25 mg/kg/injection, schedule: Q01DX001 (ip), vehicle: saline 99 % of control | dose: 12.5 mg/kg/injection, schedule: Q01DX001 (ip), vehicle: saline 95 % of control

O=CN1CCCC1Cc1ccccc1 (stereo not given)
inactive: [13] 101 % of control | [14] 96 % of control

COc1cc(CO)c(Br)c(OC)c1OC
inactive: [14] 100 % of control | [15] 100 % of control | [16] 106 % of control

Cn1c2ccccc2c(=O)c2c([N+](=O)[O-])ccc(NCCN)c21
inactive: [6] 109 % of control | [7] 114 % of control

COP(=O)(O)NS(=O)(=O)c1ccccc1
inactive: dose: 100.0 mg/kg/injection, schedule: Q01DX001 (ip), vehicle: saline 101 % of control | dose: 200.0 mg/kg/injection, schedule: Q01DX001 (ip), vehicle: saline 101 % of control | dose: 400.0 mg/kg/injection, schedule: Q01DX001 (ip), vehicle: saline 102 % of control

C(=N\Nc1nnc2c3ccccc3c3ccccc3c2n1)/c1ccc2c(c1)OCO2
inactive: dose: 50.0 mg/kg/injection, schedule: Q04DX002 (ip), vehicle: suspension in saline 91 % of control | dose: 100.0 mg/kg/injection, schedule: Q04DX002 (ip), vehicle: suspension in saline 88 % of control | dose: 200.0 mg/kg/injection, schedule: Q04DX002 (ip), vehicle: suspension in saline 91 % of control

O=C(Nc1ncc([N+](=O)[O-])s1)c1ccc([N+](=O)[O-])cc1
inactive: dose: 12.5 mg/kg/injection, schedule: Q01DX009 (ip), vehicle: saline 100 % of control | dose: 25.0 mg/kg/injection, schedule: Q01DX009 (ip), vehicle: saline 97 % of control | dose: 50.0 mg/kg/injection, schedule: Q01DX009 (ip), vehicle: saline 104 % of control

CCc1c(COC(=O)NC)c(COC(=O)NC)cc2c1[nH]c1ccccc12
inactive: dose: 50.0 mg/kg/injection, schedule: Q01DX005 (ip), vehicle: saline with Tween-80 88 % of control | dose: 100.0 mg/kg/injection, schedule: Q01DX005 (ip), vehicle: saline with Tween-80 88 % of control | dose: 200.0 mg/kg/injection, schedule: Q01DX005 (ip), vehicle: saline with Tween-80 89 % of control

C[C@H]1COC(c2ccccn2)=N1
inactive: [6] 105 % of control | [7] 106 % of control | [8] 96 % of control

CCOC(=O)C1=C(C)NC(=O)NC1c1cccs1 (stereo not given)
inactive: [3] 98 % of control | [4] 96 % of control | [5] 97 % of control

N=C(N)SCC(=O)n1ccc(=O)n(C(=O)CSC(=N)N)c1=O
inactive: dose: 100.0 mg/kg/injection, schedule: Q04DX002 (ip), vehicle: saline 100 % of control | dose: 200.0 mg/kg/injection, schedule: Q04DX002 (ip), vehicle: saline 100 % of control | dose: 400.0 mg/kg/injection, schedule: Q04DX002 (ip), vehicle: saline 96 % of control

COCCOCCOCCOCCOCCOCCOCCOC(=O)Nc1ccc(C)c(NC(=O)OCCOCCOCCOCCOCCOCCOCCOC)c1
inactive: dose: 100.0 mg/kg/injection, schedule: Q01DX009 (ip), vehicle: saline 109 % of control | dose: 200.0 mg/kg/injection, schedule: Q01DX009 (ip), vehicle: saline 109 % of control | dose: 400.0 mg/kg/injection, schedule: Q01DX009 (ip), vehicle: saline 95 % of control

[O-][n+]1onc2ccccc21
inactive: dose: 25.0 mg/kg/injection, schedule: Q04DX002 (ip), vehicle: saline with Tween-80 103 % of control | dose: 50.0 mg/kg/injection, schedule: Q04DX002 (ip), vehicle: saline with Tween-80 109 % of control | dose: 100.0 mg/kg/injection, schedule: Q04DX002 (ip), vehicle: saline with Tween-80 90 % of control
